Reference: US20050260126A1 (priority 2002, published 2005)
Structures can show the parent of a compound that is named as a salt. Where two headings read alike, the source gives them in different places.

Key:
[1] = test system: abnormal prion proteins (kuru plaques) in brain sections of GSS patients; set-up: species or system human; conditions: GSS patient brain sections, 10-200 μM in 50% ethanol, 30 minutes
[2] = test system: abnormal prion proteins in ScN2a cells with persistent infection of scrapie; assay: cells; assay type: cell-based, mouse; conditions: for IC50: Mus musculus, ScN2a, 96 h, read-out: Inhibitory effects on producing abnormal prion protein IC50
[3] = Slc:ICR, mouse, not told, iv
ScN2a cells = conditions: for Concentration of inhibiting cell proliferation TC: mouse
in vivo = conditions: male, Crj:CD1, mouse, iv
[4] = test system: abnormal prion proteins in ScN2a cells with persistent infection of scrapie; conditions: read-out: Inhibitory effects on producing abnormal prion protein IC50 (quinacrine, literature), Doh-ura et al. 2000; cited from earlier work

Row | Structure (SMILES) | Detection of spotted depositions of abnormal prion proteins (fluorescent signals) [1] | IC50 [2] | Permeability into the brain: content in Brain [3] | Permeability into the brain: content in Plasma [3] | Concentration of inhibiting cell proliferation TC (ScN2a cells) | MTD (in vivo) | IC50 [4] | Inhibitory effects on producing abnormal prion proteins (in words) ([2]; ScN2a cells) | TC and safety concentration margin (in words) (ScN2a cells)
1 | CCN(CC)c1ccc(/C=C/c2nc3ccccc3s2)cc1 [BF-124, 4-[2-(2-benzothiazolyl)-ethenyl]-N,N-diethyl-benzenamine hydrochloride] | spotted fluorescent signals were observed | 100 nM | 2.4 % ID/g or ml | 1.6 % ID/g or ml | 100 µM | ≥ 10 mg/kg |  |  | 
2 | CN(C)c1ccc(/C=C/c2ccc3ccccc3n2)cc1 [BF-179, 2-[2-(4-dimethylamino-phenyl)ethenyl]-quinoline] | spotted fluorescent signals were observed | 5 nM | 4.3 % ID/g or ml | 1.7 % ID/g or ml | 5 µM | ≥ 10 mg/kg |  |  | 
3 | CN(C)c1ncc(/C=C/c2nc3ccc(OCCF)cc3o2)s1 [BF-227, 2-[2-(2-dimethylamino-thiazol-5-yl)ethenyl]-6-(2-fluoroethoxy) benzoxazole] | spotted fluorescent signals were observed | 4 nM | 7.9 % ID/g or ml | 2.1 % ID/g or ml | 10 µM | ≥ 10 mg/kg |  |  | 
4 | CCN(CC)CCCC(C)Nc1c2ccc(Cl)cc2nc2ccc(OC)cc12 (stereo not drawn) [quinacrine] |  |  |  |  |  |  | 400 nM |  | 
5 | CCN(CC)c1ccc(/C=C/c2nc3ccccc3[nH]2)cc1 [BF-126, 4-[2-(2-benzimidazole)-ethenyl]-N,N-diethyl-benzenamine p-toluenesulfonate] | spotted fluorescent signals were observed | 100 nM | 7.2 % ID/g or ml | 2.7 % ID/g or ml | 25 µM | ≥ 10 mg/kg |  |  | 
6 | CCN(CC)c1ccc(/C=C/c2nc3ccccc3o2)cc1 [BF-125, 4-[2-(2-benzoxazolyl)ethenyl]-N,N-diethyl benzeneamine hydrochloride] | spotted fluorescent signals were observed | 100 nM | 3.0 % ID/g or ml | 2.5 % ID/g or ml | 50 µM | ≥ 10 mg/kg |  |  | 
7 | CNc1ccc(/C=C/c2nc3cc(F)ccc3o2)cc1 [BF-145, 2-(4-methylamino)-stryl-5-fluoro-benzoxazole] | spotted fluorescent signals were observed | 5 nM | 4.4 % ID/g or ml | 1.2 % ID/g or ml | 50 µM | ≥ 10 mg/kg |  |  | 
8 | C(=C\c1nc2ccccc2s1)/c1ccccc1 [Compound N-438, 2-(2-phenylethenyl)-benzothiazole] | spotted fluorescent signals were observed | 10 nM | 11 % ID/g or ml | 1.9 % ID/g or ml | 100 µM | ≥ 10 mg/kg |  |  | 
9 | C(=C\c1nc2ccccc2o1)/c1ccccc1 [Compound N-407, 2-(2-phenylethenyl)-benzoxazole] | spotted fluorescent signals were observed | 1 nM | 16.0 % ID/g or ml | 1.3 % ID/g or ml | 100 µM | ≥ 10 mg/kg |  | highly inhibitory effects | higher TCs, therefore higher safety concentration margins
